Results taken from patent US20230270692A1, “COMPOUNDS FOR CHRONIC DISORDERS” (Pillai Universal LLC, priority 2020, published 2023).
Where two headings read alike, the source gives them in different places.

Key:
[1] = test system: histone H3 acetylation, acetyl-α-tubulin; test: Histone H3 / α-tubulin acetylation western blot in PANC cells; type: cell-based, Human
Procedure: Class I HDAC expression during pancreatic tumorigenesis was next examined. Briefly different concentration of Compound I were added and incubated for 24 h. […] Inhibition of Class I HDACs is associated with the upregulation of histone H3 acetylation and p21 mRNA and protein expression which have associated with the anti-proliferative activity. It has also been reported that HDAC6 functions as a α-tubulin deacetylase, modulating tubulin stability. Because α-tubulin and histone H3 are mutual downstream targets of HDACs, the relationship between protein expression and function of molecules was further examined. The effects of Compound I on histone H3 acetylation in PANC cells using western blot analysis was studied.

[2] = test system: SARS-CoV-2; test: microbe, parasite or virus in culture; type: cell-based
[3] = test system: SARS-CoV-2; test: Antiviral activity against SARS-CoV-2 in Calu-3 cells; type: cell-based
[4] = Cytotoxicity in Calu-3 cells; type: cell-based; conditions: human, Calu-3 lung epithelial cells, read-out: 50% cytotoxic concentration (CC50)
Procedure: The antiviral activity of Compound I was assessed against SARS-CoV-2 in Calu-3 cultures. […] To determine if Compound I could inhibit replication, we first evaluated antiviral activity and cytotoxicity in the continuous human lung epithelial cell line Calu-3 cells.

[5] = test system: SARS-CoV-2; type: cell-based
[6] = 28-day oral sub-chronic toxicity (OECD 408); type: in vivo
Procedure: […] […] Rats in control groups were administrated orally with the same volume of distilled water (vehicle). During the experimental period, the body weights of all groups were measured once a week. Animals were also visually observed for mortality, changes in behavioral patterns, changes in physical appearance, and symptoms of illness. […] Blood samples were collected for the measurement of hematological (EDTA-2K coated tubes) and biochemical (dry tubes) parameters. After euthanasia, the rats were sacrificed and organs were removed for necropsy, organ weight measurement, and histopathological examination.
Urinalysis: On the last week of the treatment period, a urine test was conducted in all rat groups. Fresh urine was collected overnight from all animals, to determine specific gravity, pH, levels of leukocytes, nitrites, protein, glucose, ketones, blood, urobilinogen, and bilirubin. Urine samples were analyzed using an automatic urine analyzer and test strips.
Hematology and serum biochemistry: For the hematological investigation, all animals fasted overnight but were allowed access to water ad libitum. The rats were then anesthetized, and blood samples were collected from the abdominal aorta. Whole blood was collected in EDTA tubes (containing potassium salt of ethylenediamine-tetracetic acid) and processed immediately for hematological analysis. The parameters measured were red blood cell count (RBC), hematocrit (HCT), hemoglobin (HGB), mean corpuscular volume (MCV), mean corpuscular hemoglobin concentration (MCHC), mean corpuscular hemoglobin (MCH), white blood cell count (WBC), neutrophils (NEU), eosinophils (EOS), basophils (BASO), lymphocytes (LYM), and monocytes (MONO). The hematological analysis was performed using an automatic hematological analyzer. For the measurement of biochemical parameters, dry tubes containing collected blood were centrifuged at 3000 rpm at 5° C. for 15 min to obtain the serum. Serum samples were analyzed using an automated biochemistry analyzer. The clinical biochemistry parameters included, total serum protein (TP), albumin (ALB), total bilirubin (T-BIL), alkaline phosphatase (ALP), alanine aminotransferase (ALT), aspartate aminotransferase (AST), uric acid (URIC), urea (UREA), creatinine (CREA), low-density lipoprotein-cholesterol (LDL-C), high-density lipoprotein-cholesterol (HDL-C), total cholesterol (TC), triglycerides (TG), and glucose (GLU). Serum electrolytes such as calcium (Ca2+), sodium (Nat), potassium (K^+), and chloride (CF) were also determined.
Necropsy and organ weight: All groups of rats were subjected to gross necropsy, which included the examination of the thoracic organs, external surface, and all of the internal organs. Vital organs were carefully examined macroscopically for any type of abnormalities. Thereafter, various organs, including the heart, liver, kidneys, stomach, lung, spleen, adrenals, thymus, epididymis, testes, uterus, and ovaries were surgically removed, cleaned with ice-cold saline solution, placed on absorbent papers, and then weighed (absolute organ weight in grams). The relative organ weight (ROW) of each animal was then calculated as follows: ROW=[Absolute organ weight (g)÷Bodyweight of rat on sacrifice day (g)]×100.
Histopathology: The major organs (lung, heart, liver, kidney) and reproductive organs (testis and ovary) were removed for histopathological examinations. After weight measurement, the organs were quickly fixed in 10% buffered formalin (pH 7.4). Following fixation, tissue specimens were dehydrated in a graded series of ethanol (70-100%), cleared in toluene, and finally enclosed in paraffin. Thereafter, 5-μm thin sections were prepared using a microtome (Leica) and stained with Haematoxylin and Eosin (H & E) prior to microscopic examination.

[7] = test system: xenograft nude mice models (triple-negative breast cancer, pancreatic, liver, colon cancer); test: In vivo metastasis / stage IV tumor studies in xenograft nude mice versus standard drugs; conditions: mice, after 9 months since administration

SMILES: COc1cc(/C=C/C(=O)/C=C/C=C/c2cc(OC)c(O)c(OC)c2)cc(OC)c1 [Compound I]
- acetyl-α-tubulin [1]: no acetyl-α-tubulin was detected
- histone H3 acetylation ([1]; compared with control): stronger hyperacetylation
- reduction in viral RNA in supernatant and cell pellets ([2]; 1 μM, at 48 h, compared to control samples): 99%
- viral RNA in supernatant and cell pellets ([2]; 11 μM (figure legend)): reduction in viral RNA
- IC50 ([2]; Severe acute respiratory syndrome coronavirus 2, Vero cells, MOI 0.1, read-out: IC50 (inhibition of virus yield)): 1 µM
- viral load measured by nucleoprotein expression ([2]; Vero cells, 48 h p.i., immunofluorescence): substantially reduced
- reduction in cell-associated viral RNA ([2]; at 24 h): 99%
- reduction in viral RNA present in the supernatant ([2]; at 24 h, compared to vehicle DMSO): 100%
- viral material ([2]; by 36 h): effective loss of essentially all viral material
- inhibition of intracellular SARS-CoV-2 RNA levels ([3]; Calu-3, 24 h p.i., RT-PCR): more than 95 % of control
- IC50 ([3]; Severe acute respiratory syndrome coronavirus 2, Calu-3, read-out: average half-maximum effective concentration (IC50)): 1.5 µM
- IC50 ([3]; Severe acute respiratory syndrome coronavirus 2, Calu-3, read-out: calculated IC50 (viral genomic RNA in supernatants, qRT-PCR)): 5 µM
- IC50 ([3]; Severe acute respiratory syndrome coronavirus 2, Calu-3 cultures, 0.1-5 μM, read-out: average IC50 (reduction in replication)): 0.01 µM
- IC50 ([3]; Severe acute respiratory syndrome coronavirus 2, calu-3 cell line, replication, read-out: IC 50): 10 µM
- virus titer of treated cells ([3]; calu-3, 10 μM Compound I treated cells): ≤ 102 TCID50/ml
- CC50 [4]: > 100 µM
- inhibition ([5]; 1 μM added after 10 h post infection): no inhibition
- inhibition ([5]; 1 μM added between 6 and 8 h post infection): Less inhibition
- inhibition ([5]; 1 μM added between 2 h pre-infection and 2-h post infection): Maximal inhibition
- viral RNA levels (qPCR) ([5]; increasing concentrations): decreased
- plasma levels of AST, ALT, ALP activities ([6]; 200, 500, 1000 and 2000 mg/kg, both sexes): insignificant changes
- food and water intakes ([6]; 28 d, P>0.05 vs control): no significant changes
- body weight ([6]; acute and subacute toxicity groups): did not elicit any deleterious effect on body weight
- level of creatinine, electrolytes, urea or uric acid ([6]; all doses, both sexes): no significant difference
- WBC count and subtypes ([6]; any of the doses): did not cause any significant changes
- hematological parameters (WBC, RBC, PCV, hemoglobin) ([6]; compared to the control group): not significantly altered
- histopathology: liver ([6]; female rats): almost normal cellular architecture with normal hepataocytes
- Relative organ weight (ROW) ([6]; liver, brain, kidney, heart, spleen): did not elicit any adverse effects to the vital organs
- histopathology: heart ([6]; male and female rats): appeared normal
- histopathology: kidney ([6]; male and female rats): almost normal size and shape of glomeruli, tubules, intestinum and blood vesicles
- histopathology: lungs ([6]; male and female rats): no lymphocytic infiltrations were observed
- histopathology: pancreas ([6]; male and female rats): almost no abnormalities were observed
- histopathology: stomach ([6]; male and female rats): normal cellular architecture
- histopathology: liver ([6]; male rats): normal hepatocytes along with normal portal triads, sinusoidal spaces and central venous system
- histopathology: reproductive organs (testis, ovary) ([6]; rat, in vivo): normal pathology
- levels of total protein, albumin, conjugated bilirubin and bilirubin ([6]; rat, in vivo): no significant difference
- treatment related death ([6]; subacute, 28-day, both sexes): no treatment related death was observed
- relapse of disease [7]: no relapse of disease
